Measured values taken from patent publication US20070128217A1 (priority 2003, published 2007).

Assays:
[1] = system: control sera (pooled serum of ten healthy LUMC hospital workers; commercial negative donor pooled serum from the Dutch bloodbank); type: binding, human; design: Binding of Control serum LUMC to linear peptides / Binding of Control serum Blood-bank to linear peptides / Binding of Control serum LUMC to looped peptides / Binding of Control Serum Blood-Bank to Looped peptides / Binding of Control serum LUMC to linear peptides of the protein M of SARS-CoV Urbani / Binding of Control serum Blood-bank to linear peptides of the protein M of SARS-CoV Urbani / Binding of Control serum LUMC to looped peptides of the protein M of SARS-CoV Urbani / Binding of Control Serum Blood-Bank to Looped peptides of the protein M of SARS-CoV Urbani: unit not given here
[2] = system: rabbit serum obtained by immunizing a rabbit with the SARS-CoV strain Frankfurt 1; type: binding; design: Binding of a rabbit serum to linear peptides / Binding of a rabbit serum to looped peptides / Rabbit serum linear peptides / Rabbit serum looped peptides / Binding of a rabbit serum to linear peptides of protein N of SARS-CoV Urbani (Rabbit serum linear peptides) / Binding of a rabbit serum to looped/cyclic peptides of protein N of SARS-CoV Urbani (Rabbit serum looped peptides): unit not given here
[3] = system: antibodies in sera from SARS patients (sera 1a, 1b, 2, 6, 37, 62, London, SARS-yellow, SARS-green); type: binding, human; design: Binding of serum 6 to linear peptides of protein X1 of SARS-CoV Urbani / Binding of serum 37 to linear peptides of protein X1 of SARS-CoV Urbani / Binding of serum 6 to looped/cyclic peptide (PEPSCAN-ELISA) / Binding of serum 37 to looped/cyclic peptide (PEPSCAN-ELISA) / Binding of serum 37 to looped/cyclic peptides of protein X1 of SARS-CoV Urbani / Binding of serum 6 to linear peptides of protein X2 / Binding of serum 37 to linear peptides of protein X2 / Binding of serum 37 to looped/cyclic peptides of protein X2 of SARS-CoV Urbani / Binding of serum 6 to linear peptides of protein M of SARS-CoV Urbani / Binding of serum 37 to linear peptides of protein M of SARS-CoV Urbani / Binding of serum 6 to looped/cyclic peptides of protein M of SARS-CoV Urbani / Binding of serum 37 to looped/cyclic peptides of protein M of SARS-CoV Urbani / Binding of serum 6 to linear peptides of protein X3 of SARS-CoV Urbani / Binding of serum 37 to linear peptides of protein X3 of SARS-CoV Urbani / Binding of serum 37 to looped/cyclic peptides of protein X3 of SARS-CoV Urbani / Binding of serum 6 to linear peptides of protein X4 of SARS-CoV Urbani / Binding of serum 37 to linear peptides of protein X4 of SARS-CoV Urbani / Binding of serum 37 to looped/cyclic peptides of protein X4 of SARS-CoV Urbani / Binding of serum 6 to linear peptides of protein X5 of SARS-CoV Urbani / Binding of serum 37 to linear peptides of protein X5 of SARS-CoV Urbani / Binding of serum 37 to looped/cyclic peptides of protein X5 of SARS-CoV Urbani / Binding of serum 6 to linear peptides of protein N of SARS-CoV Urbani / Binding of serum 37 to linear peptides of protein N of SARS-CoV Urbani / Binding of serum 6 to linear peptide (PEPSCAN-ELISA) / Binding of serum 1a to looped/cyclic peptides of protein N of SARS-CoV Urbani / Binding of serum 1b to looped/cyclic peptides of protein N of SARS-CoV Urbani / Binding of serum 2 to looped/cyclic peptides of protein N of SARS-CoV Urbani / Binding of serum 6 to looped/cyclic peptides of protein N of SARS-CoV Urbani / Binding of serum 37 to looped/cyclic peptides of protein N of SARS-CoV Urbani / Binding of serum 62 to looped/cyclic peptides of protein N of SARS-CoV Urbani / Binding of serum London to looped/cyclic peptides of protein N of SARS-CoV Urbani / Binding of serum SARS-green to looped/cyclic peptides of protein N of SARS-CoV Urbani: unit not given here
[4] = system: recombinant human anti-SARS-CoV antibody 03-018; type: binding; design: Binding of antibody 03-018 to linear peptides of the N protein of SARS-CoV Urbani / Binding of antibody 03-018 to looped/cyclic peptides of the N protein of SARS-CoV Urbani: unit not given here

Row | Sequence | Binding of a rabbit serum to linear peptides of protein N of SARS-CoV Urbani (Rabbit serum linear peptides) [2] | Binding of a rabbit serum to looped/cyclic peptides of protein N of SARS-CoV Urbani (Rabbit serum looped peptides) [2] | Binding of serum 1a to linear peptides of protein N of SARS-CoV Urbani [3] | Binding of serum 1a to looped/cyclic peptides of protein N of SARS-CoV Urbani [3] | Binding of serum 1b to linear peptides of protein N of SARS-CoV Urbani [3] | Binding of serum 1b to looped/cyclic peptides of protein N of SARS-CoV Urbani [3] | Binding of serum 2 to linear peptides of protein N of SARS-CoV Urbani [3] | Binding of serum 2 to looped/cyclic peptides of protein N of SARS-CoV Urbani [3] | Binding of serum 6 to linear peptides of protein N of SARS-CoV Urbani [3] | Binding of serum 6 to looped/cyclic peptides of protein N of SARS-CoV Urbani [3] | Binding of serum 37 to linear peptides of protein N of SARS-CoV Urbani [3] | Binding of serum 37 to looped/cyclic peptides of protein N of SARS-CoV Urbani [3] | Binding of serum 62 to linear peptides of protein N of SARS-CoV Urbani [3] | Binding of serum 62 to looped/cyclic peptides of protein N of SARS-CoV Urbani [3] | Binding of serum London to linear peptides of protein N of SARS-CoV Urbani [3] | Binding of serum London to looped/cyclic peptides of protein N of SARS-CoV Urbani [3] | Binding of serum SARS-green to looped/cyclic peptides of protein N of SARS-CoV Urbani [3] | Binding of serum SARS-yellow to looped/cyclic peptides of protein N of SARS-CoV Urbani [3] | Binding of antibody 03-018 to linear peptides of the N protein of SARS-CoV Urbani [4] | Binding of antibody 03-018 to looped/cyclic peptides of the N protein of SARS-CoV Urbani [4] | further results
1 | AFFGMSRIGMEVTPS | 0.1 | 0.5 | 0.3 | 0.4 | 0.1 | 0.3 | 0.2 | 0.4 | 0.2 | 0.2 | 0.6 | 0.6 | 0.7 | 0.6 | 0.5 | 0.4 | 0.4 | 0.5 | 0.1 | 0.2 | Control Serum Blood-Bank Looped peptides [1]: 0.6; Control serum Blood-bank linear peptides [1]: 0.7; Control serum LUMC linear peptides [1]: 0.6; Control serum LUMC looped peptides [1]: 0.8; Binding of serum SARS-green to linear peptides of protein N of SARS-CoV Urbani [3]: 0.2; Binding of serum SARS-yellow to linear peptides of protein N of SARS-CoV Urbani [3]: 0.5
2 | ELSPRWYFYYLGTGP | 0.1 | 0.4 | 0.2 | 0.3 | 0.2 | 0.2 | 0.3 | 0.4 | 0.2 | 0.2 | 0.8 | 0.8 | 0.7 | 0.7 | 0.5 | 0.4 | 0.3 | 0.5 | 0.1 | 0.2 | Binding of Control Serum Blood-Bank to Looped peptides [1]: 0.7; Binding of Control serum Blood-bank to linear peptides [1]: 0.6; Binding of Control serum LUMC to linear peptides [1]: 0.5; Binding of Control serum LUMC to looped peptides [1]: 0.5; Binding of serum SARS-green to linear peptides of protein N of SARS-CoV Urbani [3]: 0.4; Binding of serum SARS-yellow to linear peptides of protein N of SARS-CoV Urbani [3]: 0.7
3 | LQNSMSGASADSTQA | 0.9 | 0.4 | 0.2 | 0.2 | 0.1 | 0.1 | 0.1 | 0.4 | 0.2 | 0.0 | 0.6 | 0.5 | 0.4 | 0.1 | 0.6 | 0.1 | 0.0 | 0.0 | 0.2 | 0.2 | Control Serum Blood-Bank Looped peptides [1]: 0.0; Control serum Blood-bank linear peptides [1]: 0.7; Control serum LUMC linear peptides [1]: 0.5; Control serum LUMC looped peptides [1]: 0.2; Binding of serum SARS-green to linear peptides of protein N of SARS-CoV Urbani [3]: 0.4; Binding of serum SARS-yellow to linear peptides of protein N of SARS-CoV Urbani [3]: 0.6
4 | QTVTKKSAAEASKKP | 0.2 | 0.3 |  | 0.3 |  | 0.2 |  | 0.4 |  | 0.2 |  | 0.5 |  | 0.3 |  | 0.3 | 0.0 | 0.2 | 0.1 | 0.2 | Binding of Control Serum Blood-Bank to Looped peptides [1]: 0.5; Binding of Control serum Blood-bank to linear peptides [1]: 0.8; Binding of Control serum LUMC to linear peptides [1]: 0.9; Binding of Control serum LUMC to looped peptides [1]: 0.5; Recognition of the peptide by sera of SARS-CoV infected individuals, and form (linear, looped/cyclic) in which it is recognized [3]: recognized in linear form
5 | DAYKTFPPTEPKKDK | 0.1 | 0.1 | 0.3 | 0.2 | 0.2 | 0.1 | 0.3 | 0.2 | 0.3 | 0.1 | 0.8 | 0.3 | 1.1 | 0.2 | 0.6 | 0.2 | 0.0 | 0.1 | 0.1 | 0.2 | Control Serum Blood-Bank Looped peptides [1]: 0.2; Control serum Blood-bank linear peptides [1]: 0.8; Control serum LUMC linear peptides [1]: 0.6; Control serum LUMC looped peptides [1]: 0.2; Binding of serum SARS-green to linear peptides of protein N of SARS-CoV Urbani [3]: 0.4; Binding of serum SARS-yellow to linear peptides of protein N of SARS-CoV Urbani [3]: 0.7
